Results: the OligoGym collection
HELM strings list units from the 5' end as sugar, base in round brackets, then linkage (d deoxyribose, r ribose, m 2'-O-methyl, p phosphodiester). Strings are as the collection lists them, not checked against the first reports. ss, as = sense and antisense strand; [lna] = locked nucleic acid (LNA); [hna] = hexitol nucleic acid; [s4r] = 4'-thioribose; [fl2r] = 2'-fluoro

Conditions: siRNA
Note: test system not given here.

“RNA1{r(G)p.r(C)p.r(G)p.r(A)p.r(G)p.r(C)p.r(A)p.r(G)p.r(A)p.r(G)p.r(A)p.r(A)p.r(U)p.r(C)p.m(U)p.r(A)p.r(C)p.r(C)p.r(U)p.r(T)p.r(T)}|RNA2{r(A)p.r(G)p.r(G)p.m(U)p.r(A)p.r(G)p.r(A)p.r(U)p.r(U)p.r(C)p.r(U)p.r(C)p.r(U)p.r(G)p.r(C)p.r(U)p.r(C)p.r(G)p.r(C)p.r(T)p.r(T)}$$$RNA1{StrandType:ss}|RNA2{StrandType:as}$” gave a target mRNA knockdown of 90%.
Substance “RNA1{r(U)p.r(C)p.r(C)p.r(U)p.r(C)p.r(G)p.r(U)p.r(C)p.r(G)p.r(U)p.r(C)p.r(U)p.r(G)p.r(U)p.r(U)p.r(C)p.[fl2r](U)p.r(A)p.r(A)p.r(T)p.r(T)}|RNA2{r(U)p.[fl2r](U)p.r(A)p.r(G)p.r(A)p.r(A)p.[fl2r](C)p.r(A)p.r(G)p.r(A)p.r(C)p.r(G)p.r(A)p.r(C)p.r(G)p.r(A)p.r(G)p.r(G)p.r(A)p.r(T)p.r(T)}$$$RNA1{StrandType:ss}|RNA2{StrandType:as}$” has a target mRNA knockdown of 74%.
Work on “RNA1{[s4r](C)p.[s4r](G)p.r(U)p.r(A)p.r(C)p.r(G)p.r(C)p.r(G)p.r(G)p.r(A)p.r(A)p.r(U)p.r(A)p.r(C)p.r(U)p.r(U)p.r(C)p.r(G)p.r(A)p.r(T)p.r(T)}|RNA2{[s4r](U)p.[s4r](C)p.r(G)p.r(A)p.r(A)p.r(G)p.r(U)p.r(A)p.r(U)p.r(U)p.r(C)p.r(C)p.r(G)p.r(C)p.r(G)p.r(U)p.r(A)p.[s4r](C)p.[s4r](G)p.r(T)p.r(T)}$$$RNA1{StrandType:ss}|RNA2{StrandType:as}$” yielded a target mRNA knockdown of 90.4%.
In the case of “RNA1{r(C)p.r(G)p.r(C)p.r(C)p.r(C)p.r(C)p.r(C)p.r(C)p.r(U)p.r(C)p.r(A)p.r(A)p.r(G)p.r(C)p.m(U)p.r(A)p.r(C)p.r(C)p.r(G)p.r(T)p.r(T)}|RNA2{r(C)p.r(G)p.r(G)p.m(U)p.r(A)p.r(G)p.r(C)p.r(U)p.r(U)p.r(G)p.r(A)p.r(G)p.r(G)p.r(G)p.r(G)p.r(G)p.r(G)p.r(C)p.r(G)p.r(T)p.r(T)}$$$RNA1{StrandType:ss}|RNA2{StrandType:as}$”, the target mRNA knockdown is reported as 76%.
“RNA1{r(G)p.r(A)p.r(C)p.r(G)p.[hna](U)p.r(A)p.r(A)p.[hna](A)p.r(C)p.r(G)p.[hna](G)p.r(C)p.r(C)p.[hna](A)p.r(C)p.r(A)p.r(A)p.r(G)p.r(U)p.[hna](U)p.d(T)}|RNA2{r(A)p.r(C)p.[hna](U)p.r(U)p.r(G)p.r(U)p.r(G)p.r(G)p.r(C)p.r(C)p.r(G)p.r(U)p.r(U)p.r(U)p.r(A)p.r(C)p.r(G)p.[hna](U)p.[hna](C)p.[hna](G)p.d(T)}$$$RNA1{StrandType:ss}|RNA2{StrandType:as}$” showed a target mRNA knockdown of 25.2%.
“RNA1{r(A)p.r(G)p.r(A)p.m(U)p.r(G)p.r(U)p.r(U)p.r(C)p.r(U)p.r(C)p.r(G)p.m(U)p.r(A)p.r(A)p.r(G)p.r(G)p.r(A)p.r(C)p.r(G)p.r(T)p.r(T)}|RNA2{r(C)p.r(G)p.r(U)p.r(C)p.r(C)p.r(U)p.m(U)p.r(A)p.r(C)p.r(G)p.r(A)p.r(G)p.r(A)p.r(A)p.m(C)p.r(A)p.r(U)p.r(C)p.r(U)p.r(T)p.r(T)}$$$RNA1{StrandType:ss}|RNA2{StrandType:as}$” showed a target mRNA knockdown of 60%.
“RNA1{r(A)p.r(U)p.r(C)p.r(G)p.r(U)p.r(C)p.r(G)p.r(U)p.r(C)p.r(A)p.r(G)p.r(G)p.r(G)p.m(U)p.r(A)p.r(A)p.r(G)p.r(G)p.r(U)p.r(T)p.r(T)}|RNA2{r(A)p.r(C)p.r(C)p.r(U)p.m(U)p.r(A)p.r(C)p.r(C)p.r(C)p.r(U)p.r(G)p.r(A)p.r(C)p.r(G)p.r(A)p.r(C)p.r(G)p.r(A)p.r(U)p.r(T)p.r(T)}$$$RNA1{StrandType:ss}|RNA2{StrandType:as}$” gave a target mRNA knockdown of 49%.
In the case of “RNA1{m(A)p.r(U)p.m(G)p.r(G)p.m(G)p.r(A)p.m(G)p.r(A)p.m(A)p.r(G)p.m(U)p.r(A)p.m(G)p.r(U)p.m(C)p.r(C)p.m(C)p.r(C)p.r(C)p.r(T)p.r(T)}|RNA2{r(G)p.r(G)p.r(G)p.r(G)p.r(G)p.r(A)p.r(C)p.r(U)p.r(A)p.r(C)p.r(U)p.r(U)p.r(C)p.r(U)p.r(C)p.r(C)p.r(C)p.r(A)p.r(U)p.r(T)p.r(T)}$$$RNA1{StrandType:ss}|RNA2{StrandType:as}$”, the target mRNA knockdown is reported as 71%.
Substance “RNA1{r(C)p.r(U)p.r(U)p.r(A)p.r(C)p.r(G)p.r(C)p.r(U)p.r(G)p.r(A)p.r(G)p.r(U)p.r(A)p.r(C)p.r(U)p.r(U)p.r(C)p.r(G)p.r(A)p.r(T)p.r(T)}|RNA2{r(T)p.r(C)p.r(G)p.r(A)p.r(A)p.r(G)p.[lna](T)p.r(A)p.r(C)p.r(U)p.r(C)p.r(A)p.r(G)p.r(C)p.r(G)p.r(U)p.r(A)p.r(A)p.r(G)p.[lna](T)p.[lna](T)}$$$RNA1{StrandType:ss}|RNA2{StrandType:as}$” has a target mRNA knockdown of 93%.
For “RNA1{r(G)p.r(G)p.r(G)p.r(A)p.r(A)p.r(A)p.[fl2r](C)p.[fl2r](U)p.r(G)p.r(A)p.r(A)p.r(A)p.r(G)p.r(G)p.[fl2r](C)p.[fl2r](U)p.r(A)p.[fl2r](U)p.r(G)p.r(T)p.r(T)}|RNA2{r(C)p.r(A)p.r(U)p.r(A)p.r(G)p.r(C)p.r(C)p.r(U)p.r(U)p.r(U)p.r(C)p.r(A)p.r(G)p.r(U)p.r(U)p.r(U)p.r(C)p.r(C)p.r(C)p.r(T)p.r(T)}$$$RNA1{StrandType:ss}|RNA2{StrandType:as}$”, the target mRNA knockdown was 51%.
Substance “RNA1{r(G)p.r(A)p.r(C)p.r(G)p.[hna](U)p.r(A)p.r(A)p.[hna](A)p.r(C)p.r(G)p.[hna](G)p.r(C)p.r(C)p.[hna](A)p.r(C)p.r(A)p.r(A)p.r(G)p.[hna](U)p.[hna](U)p.d(T)}|RNA2{r(A)p.m(C)p.r(U)p.r(U)p.r(G)p.r(U)p.r(G)p.r(G)p.r(C)p.r(C)p.r(G)p.r(U)p.r(U)p.r(U)p.r(A)p.r(C)p.r(G)p.r(U)p.r(C)p.r(G)p.r(C)}$$$RNA1{StrandType:ss}|RNA2{StrandType:as}$” has a target mRNA knockdown of 44.7%.
Work on “RNA1{m(A)p.r(G)p.m(U)p.r(C)p.m(C)p.r(C)p.m(U)p.r(G)p.m(G)p.r(A)p.m(G)p.r(C)p.m(C)p.r(U)p.r(U)p.r(A)p.m(A)p.r(A)p.m(C)p.r(T)p.r(T)}|RNA2{r(G)p.r(U)p.r(U)p.r(U)p.r(A)p.r(A)p.r(G)p.r(G)p.r(C)p.r(U)p.r(C)p.r(C)p.r(A)p.r(G)p.r(G)p.r(G)p.r(A)p.r(C)p.r(U)p.r(T)p.r(T)}$$$RNA1{StrandType:ss}|RNA2{StrandType:as}$” yielded a target mRNA knockdown of 68%.
For “RNA1{r(G)p.m(C)p.r(A)p.r(A)p.r(G)p.r(U)p.r(G)p.r(G)p.r(C)p.r(A)p.r(A)p.r(G)p.r(A)p.r(G)p.r(G)p.r(A)p.r(U)p.m(U)p.r(A)p.r(T)p.r(T)}|RNA2{m(U)p.r(A)p.r(A)p.r(U)p.r(C)p.r(C)p.r(U)p.r(C)p.r(U)p.m(U)p.r(G)p.r(C)p.m(C)p.r(A)p.r(C)p.r(U)p.m(U)p.r(G)p.r(C)p.r(T)p.r(T)}$$$RNA1{StrandType:ss}|RNA2{StrandType:as}$”, the target mRNA knockdown was 68%.
Substance “RNA1{r(G)p.r(C)p.r(A)p.r(G)p.r(C)p.r(A)p.r(C)p.r(G)p.r(A)p.r(C)p.r(U)p.r(U)p.r(C)p.r(U)p.r(U)p.r(C)p.r(A)p.r(A)p.r(G)p.r(U)p.r(U)}|RNA2{r(C)p.m(U)p.r(U)p.r(G)p.r(A)p.r(A)p.r(G)p.r(A)p.r(A)p.r(G)p.r(U)p.r(C)p.r(G)p.r(U)p.r(G)p.r(C)p.r(U)p.r(G)p.r(C)p.r(U)p.r(U)}$$$RNA1{StrandType:ss}|RNA2{StrandType:as}$” has a target mRNA knockdown of 71.7%.
Work on “RNA1{r(G)p.r(G)p.r(A)p.r(A)p.r(G)p.r(A)p.r(A)p.r(G)p.r(A)p.[fl2r](U)p.r(A)p.r(G)p.r(A)p.r(G)p.[fl2r](C)p.r(A)p.r(U)p.r(C)p.r(C)p.r(T)p.r(T)}|RNA2{r(G)p.r(G)p.r(A)p.[fl2r](U)p.r(G)p.r(C)p.r(U)p.r(C)p.[fl2r](U)p.r(A)p.r(U)p.r(C)p.r(U)p.r(U)p.r(C)p.r(U)p.r(U)p.r(C)p.r(C)p.r(T)p.r(T)}$$$RNA1{StrandType:ss}|RNA2{StrandType:as}$” yielded a target mRNA knockdown of 37%.
“RNA1{r(A)p.r(A)p.r(C)p.r(C)p.r(C)p.r(A)p.r(C)p.r(C)p.r(A)p.r(C)p.r(A)p.r(G)p.r(C)p.m(U)p.m(A)p.r(G)p.r(A)p.r(A)p.r(C)p.r(U)p.r(U)}|RNA2{r(A)p.r(A)p.r(G)p.r(U)p.r(U)p.r(C)p.r(U)p.r(A)p.r(G)p.r(C)p.r(U)p.r(G)p.r(U)p.r(G)p.r(G)p.r(U)p.r(G)p.r(G)p.r(G)p.r(U)p.r(U)}$$$RNA1{StrandType:ss}|RNA2{StrandType:as}$” gave a target mRNA knockdown of 79%.
“RNA1{r(G)p.r(A)p.r(C)p.r(G)p.[hna](U)p.r(A)p.r(A)p.[hna](A)p.r(C)p.r(G)p.[hna](G)p.r(C)p.r(C)p.[hna](A)p.r(C)p.r(A)p.r(A)p.r(G)p.r(U)p.[hna](U)p.d(T)}|RNA2{r(A)p.[hna](C)p.r(U)p.r(U)p.r(G)p.r(U)p.r(G)p.r(G)p.r(C)p.r(C)p.r(G)p.r(U)p.r(U)p.r(U)p.r(A)p.r(C)p.r(G)p.[hna](U)p.[hna](C)p.[hna](G)p.d(T)}$$$RNA1{StrandType:ss}|RNA2{StrandType:as}$” gave a target mRNA knockdown of 11.9%.
In the case of “RNA1{m(A)p.r(A)p.m(A)p.r(G)p.m(C)p.r(G)p.m(G)p.r(U)p.m(G)p.r(G)p.m(A)p.r(U)p.m(C)p.r(A)p.m(G)p.r(C)p.m(U)p.r(C)p.m(U)p.r(T)p.r(T)}|RNA2{r(A)p.m(G)p.r(A)p.m(G)p.r(C)p.r(U)p.r(G)p.r(A)p.r(U)p.r(C)p.r(C)p.r(A)p.r(C)p.r(C)p.m(G)p.r(C)p.r(U)p.r(U)p.r(U)p.r(T)p.r(T)}$$$RNA1{StrandType:ss}|RNA2{StrandType:as}$”, the target mRNA knockdown is reported as 43%.
Work on “RNA1{[hna](G)p.[hna](A)p.[hna](C)p.r(G)p.r(U)p.r(A)p.r(A)p.r(A)p.r(C)p.r(G)p.r(G)p.r(C)p.r(C)p.r(A)p.r(C)p.r(A)p.r(A)p.[hna](G)p.[hna](U)p.[hna](U)p.d(T)}|RNA2{r(A)p.m(C)p.r(U)p.r(U)p.r(G)p.r(U)p.r(G)p.r(G)p.r(C)p.r(C)p.r(G)p.r(U)p.r(U)p.r(U)p.r(A)p.r(C)p.r(G)p.r(U)p.r(C)p.r(G)p.r(C)}$$$RNA1{StrandType:ss}|RNA2{StrandType:as}$” yielded a target mRNA knockdown of 84%.
Substance “RNA1{[s4r](C)p.[s4r](G)p.[s4r](U)p.[s4r](A)p.[s4r](C)p.[s4r](G)p.r(C)p.r(G)p.r(G)p.r(A)p.r(A)p.r(U)p.r(A)p.[s4r](C)p.[s4r](U)p.[s4r](U)p.[s4r](C)p.[s4r](G)p.[s4r](A)p.r(T)p.r(T)}|RNA2{[s4r](U)p.[s4r](C)p.r(G)p.r(A)p.r(A)p.r(G)p.r(U)p.r(A)p.r(U)p.r(U)p.r(C)p.r(C)p.r(G)p.r(C)p.r(G)p.r(U)p.r(A)p.[s4r](C)p.[s4r](G)p.r(T)p.r(T)}$$$RNA1{StrandType:ss}|RNA2{StrandType:as}$” has a target mRNA knockdown of 28.6%.
